# Where two headings read alike, the source gives them in different places.
# Assays:
# GSK3α = GSK3α (Homo sapiens, UniProt P49840); experiment: biochemical
# GSK3β [1] = target: T1, GSK3β (Homo sapiens, UniProt P49841); experiment: biochemical
# Procedure: (§1) Reactions were terminated by the addition of 10 mM EDTA. Substrate and product were separated electrophoretically and fluorescence intensity of the substrate and product was determined by Labchip EZ Reader II (Caliper Life Sciences, MA). The kinase activity was measured as percent conversion. The reactions were performed in duplicate for each sample. […] The results were analyzed by Genedata Assay Analyzer. The percent inhibition was plotted against the compound concentration and the IC50 value was determined from the logistic dose-response curve fitting.
# GSK3β [2] = target: T1, GSK3β
# Procedure: as §1
# [3] = Caliper assay, GSK3β over GSK3α
# T1 sequence (P49841 whole entry): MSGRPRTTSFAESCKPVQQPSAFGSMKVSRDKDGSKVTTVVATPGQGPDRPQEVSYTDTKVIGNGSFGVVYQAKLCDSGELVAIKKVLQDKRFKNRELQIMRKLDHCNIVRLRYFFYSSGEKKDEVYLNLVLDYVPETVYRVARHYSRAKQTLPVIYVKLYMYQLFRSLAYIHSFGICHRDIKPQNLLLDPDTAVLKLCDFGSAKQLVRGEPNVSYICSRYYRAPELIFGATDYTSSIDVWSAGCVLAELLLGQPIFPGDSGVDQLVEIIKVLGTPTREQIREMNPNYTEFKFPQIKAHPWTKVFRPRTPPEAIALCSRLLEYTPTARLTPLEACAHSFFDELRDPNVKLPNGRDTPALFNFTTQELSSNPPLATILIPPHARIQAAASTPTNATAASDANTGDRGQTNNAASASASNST
# GSK3α, sequence (P49840 whole entry): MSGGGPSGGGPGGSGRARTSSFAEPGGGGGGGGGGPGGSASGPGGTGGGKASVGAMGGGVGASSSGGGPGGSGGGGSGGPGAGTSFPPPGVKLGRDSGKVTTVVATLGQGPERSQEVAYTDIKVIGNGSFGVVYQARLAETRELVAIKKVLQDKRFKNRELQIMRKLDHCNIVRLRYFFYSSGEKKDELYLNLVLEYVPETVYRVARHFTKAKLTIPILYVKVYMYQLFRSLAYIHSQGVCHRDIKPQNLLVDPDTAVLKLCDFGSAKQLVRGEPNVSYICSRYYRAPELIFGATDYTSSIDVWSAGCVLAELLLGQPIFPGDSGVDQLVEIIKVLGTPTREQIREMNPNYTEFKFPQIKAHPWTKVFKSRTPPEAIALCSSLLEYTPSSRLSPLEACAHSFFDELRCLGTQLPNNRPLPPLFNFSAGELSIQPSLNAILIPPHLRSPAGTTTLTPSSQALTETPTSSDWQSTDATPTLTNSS
Structure (SMILES),IC50 (GSK3α) [nM],IC50 (GSK3β [1]) [nM],GSK3β fold selectivity (GSK3β [2]; [3]) [fold],GSK3β fold selectivity (GSK3β [2]) [fold]
CC(C)c1[nH]nc2c1[C@]1(CCc3ccccc31)C1=C(CC(C)(C)CC1=O)N2 (stereo in doubt) [Compound 243],178,27,6.6,–
CC1(C)CC(=O)C2=C(C1)Nc1n[nH]c(C3CC(F)(F)C3)c1[C@]2(C)c1cccc(C(F)(F)F)c1 (stereo in doubt) [Compound 248],86,30,2.9,–
CC1(C)CC(=O)C2=C(C1)Nc1n[nH]c(C3CC(F)(F)C3)c1[C@@]2(C)c1cccc(C(F)(F)F)c1 (stereo in doubt) [Compound 249],4790,1550,3.1,–
COc1ccccc1[C@H]1C2=C(CC(C)(C)CC2=O)Nc2n[nH]c(C3CC(F)(F)C3)c21 (stereo in doubt) [Compound 251],1250,84,14.9,–
COc1ccccc1[C@@H]1C2=C(CC(C)(C)CC2=O)Nc2n[nH]c(C3CC(F)(F)C3)c21 (stereo in doubt) [Compound 252],191,23,8.3,–
COc1ccccc1[C@]1(C)C2=C(CC(C)(C)CC2=O)Nc2n[nH]c(C3CC(F)(F)C3)c21 (stereo in doubt) [Compound 254],9330,2520,3.7,–
COc1ccccc1[C@@]1(C)C2=C(CC(C)(C)CC2=O)Nc2n[nH]c(C3CC(F)(F)C3)c21 (stereo in doubt) [Compound 255],28000,13400,2.1,–
CC(C)(C)Cc1[nH]nc2c1[C@](C)(c1ccccc1)C1=C(CC(C)(C)CC1=O)N2 (stereo in doubt) [Compound 272],215,15,14.3,–
CC(C)(C)Cc1[nH]nc2c1[C@@](C)(c1ccccc1)C1=C(CC(C)(C)CC1=O)N2 (stereo in doubt) [Compound 273],6700,1050,6.4,–
CC(C)(C)Cc1[nH]nc2c1[C@](C)(c1ccc(F)cc1)C1=C(CC(C)(C)CC1=O)N2 (stereo in doubt) [Compound 276],1060,104,10.2,–
CC(C)(C)Cc1[nH]nc2c1[C@@](C)(c1ccc(F)cc1)C1=C(CC(C)(C)CC1=O)N2 (stereo in doubt) [Compound 277],2800,949,3.0,–
COc1ccccc1[C@H]1C2=C(CC(C)(C)CC2=O)Nc2n[nH]c(CC(C)(C)C)c21 (stereo in doubt) [Compound 279],135,14,9.6,–
COc1ccccc1[C@@H]1C2=C(CC(C)(C)CC2=O)Nc2n[nH]c(CC(C)(C)C)c21 (stereo in doubt) [Compound 280],10600,1910,5.6,–
CC(C)(C)Cc1[nH]nc2c1[C@@]1(CCc3ccccc31)C1=C(CC(C)(C)CC1=O)N2 (stereo in doubt) [Compound 282],28,1.7,16.5,–
CC(C)(C)Cc1[nH]nc2c1[C@]1(CCc3ccccc31)C1=C(CC(C)(C)CC1=O)N2 (stereo in doubt) [Compound 283],1910,212,9.0,–
CC(C)(C)Cc1[nH]nc2c1[C@@]1(CCc3cc(F)ccc31)C1=C(CC(C)(C)CC1=O)N2 (stereo in doubt) [Compound 285],249,11,22.6,–
CC(C)(C)Cc1[nH]nc2c1[C@]1(CCc3cc(F)ccc31)C1=C(CC(C)(C)CC1=O)N2 (stereo in doubt) [Compound 286],4760,790,6.0,–
CC(C)(C)Cc1[nH]nc2c1[C@@]1(CCOc3ccccc31)C1=C(CC(C)(C)CC1=O)N2 (stereo in doubt) [Compound 288],139,18,7.7,–
CC(C)(C)Cc1[nH]nc2c1[C@]1(CCOc3ccccc31)C1=C(CC(C)(C)CC1=O)N2 (stereo in doubt) [Compound 289],2980,530,5.6,–
CCC(C)(C)Cc1[nH]nc2c1[C@](C)(c1ccccc1)C1=C(CC(C)(C)CC1=O)N2 (stereo in doubt) [Compound 291],332,52,6.4,–
CCC(C)(C)Cc1[nH]nc2c1[C@@](C)(c1ccccc1)C1=C(CC(C)(C)CC1=O)N2 (stereo in doubt) [Compound 292],12000,3020,4.0,–
CCC(C)(C)Cc1[nH]nc2c1[C@@]1(CCc3cc(F)ccc31)C1=C(CC(C)(C)CC1=O)N2 (stereo in doubt) [Compound 293],1440,127,11.3,–
CCC(C)(C)Cc1[nH]nc2c1[C@]1(CCc3cc(F)ccc31)C1=C(CC(C)(C)CC1=O)N2 (stereo in doubt) [Compound 294],4760,785,6.1,–

Structure (SMILES),IC50 (GSK3α) [nM],IC50 (GSK3β [1]) [nM],GSK3β fold selectivity (GSK3β [2]; [3]) [fold],GSK3β fold selectivity (GSK3β [2]) [fold]
CC(C)c1[nH]nc2c1[C@](C)(c1ccccc1)C1=C(CC(C)(C)CC1=O)N2 (stereo in doubt) [Compound 297],56,24,2.3,–
CC(C)c1[nH]nc2c1[C@@](C)(c1ccccc1)C1=C(CC(C)(C)CC1=O)N2 (stereo in doubt) [Compound 298],479,229,2.1,–
CC1(C)CC(=O)C2=C(C1)Nc1n[nH]c(C3CCCC3)c1[C@]2(C)c1ccccc1 (stereo in doubt) [Compound 301],1060,372,2.9,–
CC1(C)CC(=O)C2=C(C1)Nc1n[nH]c(C3CCCC3)c1[C@@]2(C)c1ccccc1 (stereo in doubt) [Compound 302],27500,5280,5.2,–
CC1(C)CC(=O)C2=C(C1)Nc1n[nH]c(C3CCCCC3)c1[C@]2(C)c1ccccc1 (stereo in doubt) [Compound 304],2380,977,2.4,–
CC1(C)CC(=O)C2=C(C1)Nc1n[nH]c(C3CCCCC3)c1[C@@]2(C)c1ccccc1 (stereo in doubt) [Compound 305],17400,5060,3.4,–
CC(C)Cc1[nH]nc2c1[C@](C)(c1ccccc1)C1=C(CC(C)(C)CC1=O)N2 (stereo in doubt) [Compound 307],237,41,5.8,–
CC(C)Cc1[nH]nc2c1[C@@](C)(c1ccccc1)C1=C(CC(C)(C)CC1=O)N2 (stereo in doubt) [Compound 308],22300,4040,5.5,–
CC(C)c1[nH]nc2c1[C@](C)(c1ccccc1F)C1=C(CC(C)(C)CC1=O)N2 (stereo in doubt) [Compound 312],386,66,5.8,–
CC(C)c1[nH]nc2c1[C@@](C)(c1ccccc1F)C1=C(CC(C)(C)CC1=O)N2 (stereo in doubt) [Compound 313],4340,385,11.3,–
CC(C)c1[nH]nc2c1[C@](C)(c1ccccc1Cl)C1=C(CC(C)(C)CC1=O)N2 (stereo in doubt) [Compound 316],6280,703,8.9,–
CC(C)c1[nH]nc2c1[C@@](C)(c1ccccc1Cl)C1=C(CC(C)(C)CC1=O)N2 (stereo in doubt) [Compound 317],12900,3430,3.8,–
CC1(C)CC(=O)C2=C(C1)Nc1n[nH]c(Cc3ccccc3)c1[C@]2(C)c1ccccc1 (stereo in doubt) [Compound 327],607,185,3.3,–
CC1(C)CC(=O)C2=C(C1)Nc1n[nH]c(C3CC(F)(F)C3)c1[C@@]21COc2ccccc21 [Compound 256],13,2,–,6.5
CC1(C)CC(=O)C2=C(C1)Nc1n[nH]c(C3CC(F)(F)C3)c1[C@]21COc2ccccc21 [Compound 257],339,21,–,16.1
CC1(C)CC(=O)C2=C(C1)Nc1n[nH]c(C3CC(F)(F)C3)c1[C@@]21CCc2ccccc21 [Compound 259],87,20,–,4.4
CC1(C)CC(=O)C2=C(C1)Nc1n[nH]c(C3CC(F)(F)C3)c1[C@]21CCc2ccccc21 [Compound 260],444,53,–,8.4
CC1(C)CC(=O)C2=C(C1)Nc1n[nH]c(C3CC(F)(F)C3)c1[C@@]21CCc2c(F)cccc21 [Compound 262],542,124,–,4.4
CC1(C)CC(=O)C2=C(C1)Nc1n[nH]c(C3CC(F)(F)C3)c1[C@@]21CCc2cc(F)ccc21 [Compound 265],710,81,–,8.8
CC1(C)CC(=O)C2=C(C1)Nc1n[nH]c(C3CC(F)(F)C3)c1[C@]21CCc2cc(F)ccc21 [Compound 266],342,38,–,9.0
CC1(C)CC(=O)C2=C(C1)Nc1n[nH]c(C3CC(F)(F)C3)c1C21CCCc2ccccc21 (stereo not drawn) [Compound 267],342,38,–,9.0
CC1(C)CC(=O)C2=C(C1)Nc1n[nH]c(C3CC(F)(F)C3)c1[C@@]21CCOc2ccccc21 [Compound 269],164,18,–,9.1
